In patent US20160271513A1, “DRYING TECHNIQUES FOR MICROFLUIDIC AND OTHER SYSTEMS” (PRESIDENT AND FELLOWS OF HARVARD COLLEGE, priority 2013, published 2016):
One block for each compound: values may come before it.

Legend:
[1] = room temperature
Protocol: To calculate the time available for crystalline nuclei to form, the saturation concentration of NaCl was measured in water at room temperature to be 6.3 mol/l.

[2] = Structure and storage stability of spray-dried drug nanoparticles by X-ray diffraction; format: physicochemical
Protocol: While the characteristic size below which particles were entirely amorphous is system-specific, the suppression of nucleation in small droplets relies on a generally applicable physical principle. […] To test this expectation, the structure of spray-dried clotrimazole, estradiol, and danazol was examined using X-ray diffraction (XRD). To keep the nucleation time the same, they were dissolved at 10% of their saturation concentration. In agreement with the above, these spray-dried drug nanoparticles were amorphous.
Production of amorphous drugs may require the addition of excipients. However, despite the presence of excipients, these drugs tend to crystallize with time leading to a change in their dissolution kinetics; this prevents their application in industry. […] These drugs all had glass transition temperatures, Tg, above room temperature; they were therefore glasses at room temperature.
XRD. X-ray diffraction was performed on spray-dried nanoparticles collected onto a one-side polished (100) Si wafer for 11 h. Measurements were acquired on a XDS2000 instrument (Scintac Inc.) using a Cu Kα (K alpha) source with a wavelength λ=0.154056 nm. The angle 2θ was varied between 2 and 70° at a rate of 1°/min.
It was expected to crystallize over time if stored at room temperature even if it is initially fully amorphous.
To test if the nebulator also allowed production of amorphous nanoparticles from materials with a Tg […] room temperature, which would be a glass at room temperature, clotrimazole, estradiol, and danazol, all poorly water soluble drugs with Tgs above 20° C., were spry dried. The size of the spray dried nanoparticles was determined by the initial solute concentration and the initial drop size. To ensure similar sizes of the spray dried nanoparticles, the initial solute concentration was fixed to 5 mg/ml. […] Thus, the nebulator allowed formulation of poorly water soluble drugs as amorphous nanoparticles.
To ease the handling drugs, fenofibrate was co-spray dried with different types of excipients. […] Four different types of Pluronics were compared: F68 and F127 are solids at room temperature and Pluronics P84 and P104 are pastes at room temperature.
By analogy to Pluronics, drugs spray dried from solutions containing equal weights of drugs and excipients were crystalline. By contrast, increasing the weight fraction of PVP five-fold results in XRD-amorphous danazol nanoparticles, in agreement to danazol nanoparticles formulated using the microfluidic spray drier.
To maintain the stability of spray dried amorphous nanoparticles and facilitate their handling by embedding them in an excipient matrix, PVP was deposited on a Si-wafer and subsequently drugs were spray dried into the PVP matrix. […] However, because excipients were not required to make the drug amorphous but rather to ease their handling, this procedure is generally applicable to the formulation of many different types of drugs, by contrast to the solid dispersions where the appropriate excipients must be selected for each system individually. Thus, the nebulator used in this example allowed the formulation of amorphous drug nanoparticles that optionally could be sprayed into an excipient matrix to facilitate their handling.

[3] = Crystalline fraction of spray-dried nanoparticles by differential scanning calorimetry; format: physicochemical
Protocol: The size of inorganic nanoparticles can influence their structure.
DSC. Differential scanning calorimetry was performed on spray-dried nanoparticles that are collected in an aluminium based Tzero DSC pan. To obtain sufficient amounts of samples, nanoparticles were collected for 11 h before being sealed in the DSC pan with a Tzero Hermetic Lid (TA Instruments). DSC was measured on a DSC Q200 at a nitrogen flow rate of 50 ml/min (TA instruments); the temperature was increased from 40° C. to 85° C. at a rate of 1° C./min and subsequently the sample was cooled to 25° C. at the same rate. To quantify the amount of nanoparticles, thermogravimetry analysis (TGA) was performed on these samples after completing the DSC analysis. For this, the hermetically sealed pans were opened and TGA was performed on these samples by increasing the temperature from 25° C. to 400° C. at a rate of 10° C./min under a N2 flow of 10 ml/min (Q5000, TA instrument). The absolute mass loss was measured between 100° C. and 300° C. and the DSC data was normalized accordingly.

[4] = spray-dried from ethanol without excipients, 0.28 MPa
[5] = spray-dried without excipients, stored under ambient conditions

SMILES: [Cl-].[Na+] [NaCl]
saturation concentration of NaCl in water [1]: 6.3 mol/L

structure of spray-dried nanoparticles (XRD) [2, 4]: amorphous
SMILES: Clc1ccccc1C(c1ccccc1)(c1ccccc1)n1ccnc1 [clotrimazole]
crystallization on storage [2, 5]: did not crystallize if stored under ambient conditions for at least four weeks

structure of spray-dried nanoparticles (XRD) ([2]; co-spray dried with PVP, PVP five times the drug): XRD-amorphous
structure of spray-dried nanoparticles (XRD) ([2]; pure drug spray dried onto a PVP matrix): XRD-amorphous
structure of spray-dried nanoparticles (XRD) [2, 4]: amorphous
SMILES: C#C[C@]1(O)CC[C@H]2[C@@H]3CCC4=Cc5oncc5C[C@]4(C)[C@H]3CC[C@@]21C [danazol]
structure of spray-dried nanoparticles (XRD) ([2]; co-spray dried with Pluronics F68, F127, P84 or P104, equal weights): contain a significant fraction of crystalline regions
crystallization on storage ([2]; co-spray dried with equal weight of Pluronics (F68, F127, P84, P104), two weeks under ambient conditions): this fraction markedly increases after storing the sample for two weeks under ambient conditions
crystallization on storage [2, 5]: did not crystallize if stored under ambient conditions for at least four weeks

crystalline fraction from area of the melting peak ([3]; 25 nm large particles): 6 vol %
crystalline fraction from area of the melting peak ([3]; particles with a diameter of 20 nm): 3 vol %
SMILES: CC(C)OC(=O)C(C)(C)Oc1ccc(C(=O)c2ccc(Cl)cc2)cc1 [fenofibrate]
